This passage reports IC50 and Ki results from ChEMBL document CHEMBL1909046, “DrugMatrix in vitro pharmacology data”.

The structures appear in SMILES notation.

By IC50 is commonly meant the concentration at which inhibition is half-maximal. By Ki is commonly meant a dissociation constant, usually derived from enzyme kinetics or from competition with a known ligand.

For series [1], the target named is 5-hydroxytryptamine receptor 2B (Homo sapiens, UniProt P41595). Type of series: cell membranes, CHO-K1, Membrane. To be noted: for Ki: read-out: Ki. As to all read-outs here: in other assays of this panel Not Active means under 50% inhibition at 10 µM.
Another series concerns the target T1, Adenosine receptor A1 (Homo sapiens, UniProt P30542).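 Also: radioligand binding assay at the adenosine A1 receptor, with DPCPX serving as the labelled ligand; in other assays of this panel Not Active means under 50% inhibition at 10 µM.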
T1 sequence (P30542 whole entry): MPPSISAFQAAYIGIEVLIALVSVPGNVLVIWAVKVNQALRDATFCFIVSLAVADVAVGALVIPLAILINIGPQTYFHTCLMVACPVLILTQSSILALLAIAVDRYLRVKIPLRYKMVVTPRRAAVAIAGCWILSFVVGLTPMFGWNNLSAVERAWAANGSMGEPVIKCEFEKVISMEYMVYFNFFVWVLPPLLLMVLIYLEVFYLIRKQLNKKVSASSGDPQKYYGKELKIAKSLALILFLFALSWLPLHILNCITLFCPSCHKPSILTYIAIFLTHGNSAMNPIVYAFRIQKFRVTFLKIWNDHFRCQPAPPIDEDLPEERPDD
Type of series: cell membranes, CHO, Membrane.

Another series deals with Cytochrome P450 2C9 (Homo sapiens, UniProt P11712). The settings on record: bti-tn-5b1-4.
The nature of series [2]: DRUGMATRIX: Sigma2 radioligand binding (ligand: [3H] Ifenprodil). Format: cell membranes, Rattus norvegicus, Wistar, Brain, Membrane. The settings on record: Not Active = under 50% inhibition at 10 µM.
Series [3] deals with Kappa-type opioid receptor (Homo sapiens, UniProt P41145). As to the kind of experiment: DRUGMATRIX: Opiate kappa (OP2, KOP) radioligand binding (ligand: [3H] Diprenorphine). Format: cell membranes, HEK293, Membrane. The settings on record: hek293; Not Active = under 50% inhibition at 10 µM.
The nature of series [4]: DRUGMATRIX: Glutamate, Kainate radioligand binding (ligand: [3H] Kainic acid). To be noted: Not Active = under 50% inhibition at 10 µM. Format: cell membranes, Rattus norvegicus, Wistar, Brain, Membrane.

Sequence of 5-hydroxytryptamine receptor 2B (P41595 whole entry): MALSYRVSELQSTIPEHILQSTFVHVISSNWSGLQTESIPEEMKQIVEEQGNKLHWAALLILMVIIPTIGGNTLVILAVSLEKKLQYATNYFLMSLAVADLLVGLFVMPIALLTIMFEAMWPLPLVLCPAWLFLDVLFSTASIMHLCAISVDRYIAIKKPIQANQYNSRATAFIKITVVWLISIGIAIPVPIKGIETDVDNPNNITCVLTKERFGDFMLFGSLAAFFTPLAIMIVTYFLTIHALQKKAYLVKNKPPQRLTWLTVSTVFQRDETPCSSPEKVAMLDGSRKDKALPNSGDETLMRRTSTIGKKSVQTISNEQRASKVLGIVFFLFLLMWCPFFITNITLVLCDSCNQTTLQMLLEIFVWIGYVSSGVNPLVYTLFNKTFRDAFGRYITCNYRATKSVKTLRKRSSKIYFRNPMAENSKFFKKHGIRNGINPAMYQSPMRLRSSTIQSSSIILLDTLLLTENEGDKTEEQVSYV
Sequence of Cytochrome P450 2C9 (P11712 whole entry): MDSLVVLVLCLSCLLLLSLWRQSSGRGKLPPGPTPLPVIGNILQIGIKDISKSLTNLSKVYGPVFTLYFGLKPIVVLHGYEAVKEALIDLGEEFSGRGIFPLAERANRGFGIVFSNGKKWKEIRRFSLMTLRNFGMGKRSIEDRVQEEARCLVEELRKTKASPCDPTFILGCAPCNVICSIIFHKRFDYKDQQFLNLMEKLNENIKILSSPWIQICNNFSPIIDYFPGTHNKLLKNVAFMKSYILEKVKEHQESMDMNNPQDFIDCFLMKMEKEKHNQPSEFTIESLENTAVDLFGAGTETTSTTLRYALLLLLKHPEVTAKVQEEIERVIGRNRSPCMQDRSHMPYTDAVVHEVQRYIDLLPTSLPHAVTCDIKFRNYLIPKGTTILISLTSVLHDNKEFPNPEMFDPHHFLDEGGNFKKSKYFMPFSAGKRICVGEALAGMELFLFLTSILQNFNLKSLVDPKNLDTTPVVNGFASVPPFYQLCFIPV
Sequence of Kappa-type opioid receptor (P41145 whole entry): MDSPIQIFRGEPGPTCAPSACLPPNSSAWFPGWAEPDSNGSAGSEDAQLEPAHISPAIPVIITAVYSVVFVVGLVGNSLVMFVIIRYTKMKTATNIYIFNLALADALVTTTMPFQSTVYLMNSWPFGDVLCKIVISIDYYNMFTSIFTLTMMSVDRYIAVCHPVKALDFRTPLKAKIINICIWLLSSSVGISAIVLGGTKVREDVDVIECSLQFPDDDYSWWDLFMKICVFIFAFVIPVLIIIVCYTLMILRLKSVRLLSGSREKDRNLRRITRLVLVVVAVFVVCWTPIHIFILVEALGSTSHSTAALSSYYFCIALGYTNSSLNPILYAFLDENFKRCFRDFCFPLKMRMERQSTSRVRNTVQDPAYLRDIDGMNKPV

Take `CN1CCN(c2c(F)cc3c(=O)c(C(=O)O)cn(CCF)c3c2F)CC1` [FLEROXACIN]: the concentration for half-maximal inhibition (IC50) entry (in series [1] (cho-k1); at Adenosine receptor A1 (cho); at Cytochrome P450 2C9; in series [2]; in series [3]; in series [4]) was “Not Active” in each case. Also, the inhibitory constant (Ki) result (on Cytochrome P450 2C9; in series [2]; in series [4]) was “Not Active” each time.
`O=c1[nH]c(=O)n([C@H]2C[C@H](O)[C@@H](CO)O2)cc1F` [FLOXURIDINE]: the IC50 entry (in series [1] (cho-k1); at Adenosine receptor A1 (cho); against Cytochrome P450 2C9; in series [2]; in series [3]; in series [4]) was “Not Active” throughout. In addition, the inhibitory constant (Ki) entry (on Cytochrome P450 2C9; in series [2]; in series [4]) was “Not Active” each time.
For `COC(=O)Nc1nc2cc(C(=O)c3ccc(F)cc3)ccc2[nH]1` [FLUBENDAZOLE], the IC50 entry (in series [1] (cho-k1); against Adenosine receptor A1 (cho); against Cytochrome P450 2C9; in series [2]; in series [3]; in series [4]) was “Not Active” in each case. The Ki entry (at Cytochrome P450 2C9; in series [2]; in series [4]) was “Not Active” each time.
Regarding `CC(=O)OCC(=O)[C@@]1(O)CC[C@H]2[C@@H]3CCC4=CC(=O)CC[C@]4(C)[C@@]3(F)[C@@H](O)C[C@@]21C` [FLUDROCORTISONE ACETATE], the IC50 result (in series [1] (cho-k1); on Adenosine receptor A1 (cho); on Cytochrome P450 2C9; in series [2]; in series [3]; in series [4]) was “Not Active” throughout. Also, the Ki entry (on Cytochrome P450 2C9; in series [2]; in series [4]) was “Not Active” each time.
Consider `CCOC(=O)c1ncn2c1CN(C)C(=O)c1cc(F)ccc1-2` [FLUMAZENIL], for which the concentration for half-maximal inhibition (IC50) entry (in series [1] (cho-k1); against Adenosine receptor A1 (cho); against Cytochrome P450 2C9; in series [2]; in series [3]; in series [4]) was “Not Active” each time. Also, the inhibition constant Ki result (at Cytochrome P450 2C9; in series [2]; in series [4]) was “Not Active” in each case.
In the case of `O=C(O)P(=O)(O)O` [FOSCARNET], the IC50 result (in series [1] (cho-k1); on Adenosine receptor A1 (cho); against Cytochrome P450 2C9; in series [2]; in series [3]; in series [4]) was “Not Active” throughout. Besides, the Ki result (at Cytochrome P450 2C9; in series [2]; in series [4]) was “Not Active” throughout.
As for `Cc1ccc(C)c(OCCCC(C)(C)C(=O)O)c1` [GEMFIBROZIL], the concentration for half-maximal inhibition (IC50) result (in series [1] (cho-k1); at Adenosine receptor A1 (cho); against Cytochrome P450 2C9; in series [2]; in series [3]; in series [4]) was “Not Active” throughout. Further, the Ki entry (at Cytochrome P450 2C9; in series [2]; in series [4]) was “Not Active” throughout.
Take `O=c1c(-c2ccc(O)cc2)coc2cc(O)cc(O)c12` [GENISTEIN]: the concentration for half-maximal inhibition (IC50) entry in series [1] (cho-k1) was “Not Active”; on Adenosine receptor A1 (read-out: IC50) it was 19.9 µM; at Cytochrome P450 2C9 it was “Not Active”; in series [2], “Not Active”; in series [3] it was “Not Active”; in series [4], “Not Active”. For the same compound, the inhibition constant Ki at Adenosine receptor A1 (read-out: Ki) was 11.6 µM; at Cytochrome P450 2C9, “Not Active”; in series [2], “Not Active”; in series [4], “Not Active”.
Take `Nc1cc(-c2ccncc2)c[nH]c1=O` [INAMRINONE]: the IC50 result (in series [1] (cho-k1); against Adenosine receptor A1 (cho); on Cytochrome P450 2C9; in series [2]; in series [3]; in series [4]) was “Not Active” each time. For the same compound, the Ki entry (on Cytochrome P450 2C9; in series [2]; in series [4]) was “Not Active” throughout.
In the case of `CCCCC1=NC2(CCCC2)C(=O)N1Cc1ccc(-c2ccccc2-c2nnn[nH]2)cc1` [IRBESARTAN], the concentration for half-maximal inhibition (IC50) entry (in series [1] (cho-k1); at Adenosine receptor A1 (cho); against Cytochrome P450 2C9; in series [2]; in series [3]; in series [4]) was “Not Active” throughout. For the same compound, the Ki entry (on Cytochrome P450 2C9; in series [2]; in series [4]) was “Not Active” in each case.
Regarding `CN1CCC(=C2c3ccccc3CC(=O)c3sccc32)CC1` [KETOTIFEN], the IC50 is 0.046 µM in series [1] (read-out: IC50); “Not Active” against Adenosine receptor A1 (cho); “Not Active” against Cytochrome P450 2C9; “Not Active” in series [2]; “Not Active” in series [3]; “Not Active” in series [4]. In addition, the Ki in series [1] is 0.029 µM; at Cytochrome P450 2C9, “Not Active”; in series [2] it was “Not Active”; in series [4], “Not Active”.
Regarding `C[C@H]1COc2c(N3CCN(C)CC3)c(F)cc3c(=O)c(C(=O)O)cn1c23.C[C@H]1COc2c(N3CCN(C)CC3)c(F)cc3c(=O)c(C(=O)O)cn1c23.O` [LEVOFLOXACIN], the 50% inhibitory concentration (IC50) result (in series [1] (cho-k1); at Adenosine receptor A1 (cho); on Cytochrome P450 2C9; in series [2]; in series [3]; in series [4]) was “Not Active” throughout. Moreover, the inhibition constant Ki result (at Cytochrome P450 2C9; in series [2]; in series [4]) was “Not Active” each time.
With `CCn1cc(C(=O)O)c(=O)c2cc(F)c(N3CCNC(C)C3)c(F)c21` (configuration not stated) [LOMEFLOXACIN], the half-inhibitory concentration (IC50) entry (in series [1] (cho-k1); on Adenosine receptor A1 (cho); against Cytochrome P450 2C9; in series [2]; in series [3]; in series [4]) was “Not Active” throughout. In addition, the Ki result (on Cytochrome P450 2C9; in series [2]; in series [4]) was “Not Active” throughout.
Regarding `CN1CCCC(CN2c3ccccc3Sc3ccccc32)C1` (configuration not stated) [MEPAZINE], the 50% inhibitory concentration (IC50) was 0.514 µM in series [1] (read-out: IC50); “Not Active” against Adenosine receptor A1 (cho); “Not Active” against Cytochrome P450 2C9; 0.631 µM in series [2] (read-out: IC50); “Not Active” in series [3]; “Not Active” in series [4]. The inhibitory constant (Ki) is 0.327 µM in series [1], “Not Active” on Cytochrome P450 2C9, 0.388 µM in series [2] (read-out: Ki) and “Not Active” in series [4].
Take `Cc1cccc(C)c1NC(=O)C1CCCCN1C` (configuration not stated) [MEPIVACAINE]: the IC50 result (in series [1] (cho-k1); against Adenosine receptor A1 (cho); against Cytochrome P450 2C9; in series [2]; in series [3]; in series [4]) was “Not Active” throughout. For the same compound, the inhibitory constant (Ki) result (at Cytochrome P450 2C9; in series [2]; in series [4]) was “Not Active” in each case.
On to `CN(C)C(=N)NC(=N)N` [METFORMIN], for which the concentration for half-maximal inhibition (IC50) entry (in series [1] (cho-k1); on Adenosine receptor A1 (cho); on Cytochrome P450 2C9; in series [2]; in series [3]; in series [4]) was “Not Active” each time. Moreover, the Ki entry (on Cytochrome P450 2C9; in series [2]; in series [4]) was “Not Active” throughout.
Consider `NC(=O)c1cccnc1` [NIACINAMIDE], for which the IC50 entry (in series [1] (cho-k1); against Adenosine receptor A1 (cho); on Cytochrome P450 2C9; in series [2]; in series [3]; in series [4]) was “Not Active” each time. Further, the inhibition constant Ki result (at Cytochrome P450 2C9; in series [2]; in series [4]) was “Not Active” throughout.
On to `CS(=O)(=O)Nc1ccc([N+](=O)[O-])cc1Oc1ccccc1` [NIMESULIDE], for which the IC50 entry (in series [1] (cho-k1); at Adenosine receptor A1 (cho); against Cytochrome P450 2C9; in series [2]; in series [3]; in series [4]) was “Not Active” throughout. Also, the Ki entry (on Cytochrome P450 2C9; in series [2]; in series [4]) was “Not Active” throughout.
For the compound `CN1C(=O)CN=C(c2ccccc2)c2cc([N+](=O)[O-])ccc21` [NIMETAZEPAM], the concentration for half-maximal inhibition (IC50) result (in series [1] (cho-k1); on Adenosine receptor A1 (cho); on Cytochrome P450 2C9; in series [2]; in series [3]; in series [4]) was “Not Active” each time. Besides, the inhibitory constant (Ki) entry (at Cytochrome P450 2C9; in series [2]; in series [4]) was “Not Active” in each case.
Turning to `NC(=O)N1c2ccccc2CC(=O)c2ccccc21` [OXCARBAZEPINE], the IC50 entry (in series [1] (cho-k1); at Adenosine receptor A1 (cho); against Cytochrome P450 2C9; in series [2]; in series [3]; in series [4]) was “Not Active” throughout. In addition, the inhibition constant (Ki) entry (on Cytochrome P450 2C9; in series [2]; in series [4]) was “Not Active” each time.
With `COc1ccnc(C[S+]([O-])c2nc3ccc(OC(F)F)cc3[nH]2)c1OC` (configuration not stated) [PANTOPRAZOLE], the IC50 entry (in series [1] (cho-k1); at Adenosine receptor A1 (cho); against Cytochrome P450 2C9; in series [2]; in series [3]; in series [4]) was “Not Active” each time. In addition, the Ki result (at Cytochrome P450 2C9; in series [2]; in series [4]) was “Not Active” throughout.
